Laboratory results from patent US10973748B2, “Compositions and methods for lightening skin and reducing hyperpigmentation” (Versitech Limited, priority 2016, dated 2021).

Key:
[1] = system: microtubule-associated protein light chain 3 (LC-3); assay: Western blot of LC-3 conversion (autophagy marker); type: cell-based, murine; settings: melan-a cells, α-MSH and TPA, 72 hrs, 6-CEPN 10 or 20 μM
Description: Melan-a cells (3×10^5 cells/well) were seeded in a 6-well plate with 4 mL RPMI 1640 medium and 10% FBS. Melan-a cells were then transfected with 10 nM siRNA against autophagy-related protein 7 (ATG-7) or with the same concentration of a control siRNA, using HiPerfect Transfection Reagent. After 72 hrs of incubation, cell culture medium was replaced. Cells were then treated for 72 hrs with (1) α-MSH (1 μM) and TPA; (2) α-MSH (1 μM), TPA, and 6-CEPN (10 μM); or (3) α-MSH (1 μM), TPA, and 6-CEPN (20 μM). Total protein of cells was collected as described in the Western blotting in Example 2. The expressions of autophagy related proteins ATG-7 and microtubule-associated protein light chain 3 (LC-3) were analyzed by Western blot. LC-3 was selected because it was widely used to monitor autophagy. LC-3 can convert from a cytosolic form (i.e., LC-3 I) to a lipidated form (i.e., LC-3 II), the latter of which is attached to the autophagosome membrane (Mizushima N, et al., Autophagy, 3(6): 542-545 (2007)). ATG-7 is a required component in the conjugation of other autophagy-related proteins (e.g., the conjugation between ATG-12 and […]), which ultimately leads to the formation of autophagosome (“Autophagy Signaling Pathway,” Cell Signaling Technology, revised online October 2012).

melan-a cells [2] = assay: Melanosome autophagy by fluorescence microscopy; type: cell-based, murine; settings: α-MSH, rapamycin 0.5 μM 24 hrs, 6-CEPN 10 μM, 8-CEPQ 5 μM 72 hrs
Description: Melan-a cells (1.5×10^5 cells/well) were seeded on coverslips in 6-well palte. The cells were treated with (1) α-MSH (1 μM) alone for 24 hrs, (2) α-MSH (1 μM) plus rapamycin (0.5 μM) for 24 hrs, (3) α-MSH (1 μM) plus 6-CEPN (10 μM), or (3) α-MSH (1 μM) plus 8-CEPQ (5 μM) for 72 hrs. Culture medium was removed carefully after the cells reached 50%˜70% level of confluence. Cells were stained by microscopy dual detection reagents (autophagy detection kit, Abcam) for 30 mins at 37° C. The stained cells were analyzed by wide-field fluorescence microscopy (60× magnification). Standard FITC filter and DAPI filter were set to image the autophagic signal and the nuclear signal, respectively.

[3] = system: MelanoDerm (Mel-300-A) epidermal equivalents containing melanocytes; assay: Tissue viability of artificial skin model (CCK-8); type: cell-based, human; settings: whole treatment period (14 days), rapamycin 2.5 μM, 6-CEPN 10 μM, 8-CEPQ 5 μM
Description: Epidermal equivalents containing melanocytes (Mel-300-A) were maintained according to the manufacturer's instructions. Mel-300-A tissue was cultured in EPI-100-NMM-113 medium for 14 days. Agents were dissolved in tissue culture medium and changed every other day. The test agents were either (1) rapamycin (2.5 μM), as the positive control in depigmentation, (2) 6-CEPN (10 μM), or (3) 8-CEPQ (5 μM). The concentration of rapamycin used was lower than 6-CEPN and 8-CEPQ, as rapamycin is toxic to cells at higher concentration. Pigmentation of these skin equivalents was compared against treatment of cells with a culture medium only (denoted as “vehicle”). Tissue viability was assessed on day 14 by CCK-8 assay as described in Example 1. On day 14, single tissues were harvested and photographed. The L* parameter was used to evaluate skin lightening or darkening. The lighter the skin, the greater the L* value. ΔL* value was measured by a Chroma Meter CR400 (Konica Minolta) for an evaluation of lightening as a function of time. Three tissues for each treatment were frozen for the Solvable Melanin assay (Bessou-Touya et al., “Chimeric human epidermal reconstructs to study the role of melanocytes and keratinocytes in pigmentation and photoprotection.” Journal of investigative dermatology 111(6):1103-1108 (1998)). Additional tissues were fixed by 10% formanin. For melanin staining in paraffin-embedded tissues, Fontana-Masson silver staining was used as previously detailed (Barbosa et al., “A simple and economical modification of the Masson-Fontana method for staining melanin granules and enterochromaffin cells.” Stain technology 59(4):193-196 (1984)).

melan-a cells [4] = assay: Cell survival rate (CCK-8 assay); type: cell-based, murine; settings: 72 hrs, concentration equal to or lower than 20 μM
Description: Murine melan-a cells (an immortalized, non-tumorigenic murine melanocyte cell line) were obtained from Chinese University of Hong Kong. Cells were cultured in RPMI 1640 medium. Culture medium was supplemented with 10% FBS and 1% penicillin-streptomycin and the cells were incubated at 37° C. in 5% CO2. Melan-a cells were incubated with tetradecanoyl phorbol acetate (TPA) at a concentration of 200 nM. The tested chemical agents (e.g., 6-CEPN and Kojic acid) were individually dissolved as a stock solution at a concentration of 100 mM in 100% dimethyl sulfoxide (DMSO). The stock solution was diluted using culture medium to the desired final concentrations immediately prior to use.
Melan-a cells (10,000 cells/well) were plated in 100 μL 96-well multidishes for at least 24 hours (hrs) prior to use. The cells were treated with serial concentrations of tested chemicals for 72 hrs. After the indicated incubation time, cells were washed three times using PBS and then treated with CCK-8 solution (0.5 mg/mL) for 1.5 hours. Absorbance was measured at 490 nm using Victor X4 Multilabel Plate Reader (PerkinElmer, Mass., USA). Values were expressed as the mean cell viability as a percentage of that of the vehicle DMSO (0.1% final volume)-treated cultures.

In the case of `O=C1C[C@@H](c2ccc(O)cc2)Oc2cc(O)c(/C=C/c3ccccc3)c(O)c21` [6-CEPN, 6-C-(E-phenylethenyl)-naringenin], the “conversion of LC-3 I to LC-3 II” value [1] is reported as “increased the conversion of LC-3 I to LC-3 II”, the melanosome autophagy (melan-a cells [2]) is reported as “induced melanosome autophagy” and the “cytotoxicity (tissue viability)” value [3] is reported as “without significant cytotoxicity”. The cell survival rate (melan-a cells [4]) was “no significant decrease”.
